Our source for the glass transition temperature values is patent US8278461B2, “Stable amorphous form of carvedilol dihydrogen phosphate with stabilizer” (Lupin Limited, priority 2007, dated 2012).

Series [1] in a line: Glass transition temperature of the amorphous form. Format: physicochemical. The protocol:
We have filed an Indian patent application 292/KOL/2007 dated 27 Feb. 2007 in Indian Patent Office on amorphous form of carvedilol dihydrogen phosphate and the process for its preparation. The amorphous form obtained by the process described in this application has glass transition temperature below 60° C. The amorphous solids in general having low glass transition temperature not only create complications during formulation but also has stability related problems on storage. The glass transition temperature is the temperature, below which the physical properties of amorphous materials vary in a manner similar to those of a crystalline phase (glassy state), and above which amorphous materials behave like liquids (rubbery state). A materials glass transition temperature is the temperature below which molecules have little relative mobility. Thus, there exist a need to develop stable amorphous form of carvedilol dihydrogen phosphate which have improved characteristics. […] The amorphous carvedilol obtained without stabiliser having glass transition temperature 55-56° C. while the stable amorphous form of the present invention has glass transition temperature in the range between 76 to 185° C. The phosphorous content of the stable amorphous form of the present invention is between 18-20% on anhydrous basis.

For series [2] the following is noted: amorphous form obtained by the process of Indian application 292/KOL/2007; cited from earlier work.

Read-outs that look alike come from different tables or passages of the source.

As for `COc1ccccc1OCCNCC(O)COc1cccc2[nH]c3ccccc3c12.O=P(O)(O)O` (centres unmarked) [carvedilol dihydrogen phosphate], the results for the glass transition temperature in series [1] and in series [2] were 55-56 °C and “below 60 °C”, respectively.
